Consider seven molecules from paper PMC3864932, “Identification of Crucial Amino Acids in Mouse Aldehyde Oxidase 3 That Determine Substrate Specificity” (PLoS ONE, 2013).

Series [1] concerns T1, mAOX3-FeSII-FeSI-mAOX1.
T1 construct: gene Aox3
To be noted: read-out: mAOX3-FeSII-FeSI-mAOX1; O2 (air-saturated buffer) as electron acceptor, 50 mM Tris-HCl pH 8.0, 1 mM EDTA, 37 °C; kcat corrected for Mo content.

For series [2], the system named is T2, mAOX3-FeSI-mAOX1.
T2 construct: gene Aox3
To be noted: read-out: mAOX3-FeSI-mAOX1; O2 (air-saturated buffer) as electron acceptor, 50 mM Tris-HCl pH 8.0, 1 mM EDTA, 37 °C; kcat corrected for Mo content.

The subject of series [3] is T3, mAOX3-FeSII-mAOX1.
T3 construct: gene Aox3
To be noted: read-out: mAOX3-FeSII-mAOX1; O2 (air-saturated buffer) as electron acceptor, 50 mM Tris-HCl pH 8.0, 1 mM EDTA, 37 °C; kcat corrected for Mo content.

Series [4] relates to T4, mAOX3-FeSII-FeSI-mAOX1.
T4 construct: gene Aox3; mAOX3 with M1-Q214 replaced by M1-Q213 of mAOX1 (both FeS domains); N-terminal His6-tag; E. coli; dimer
Nature of the series: steady-state kinetics, DCPIP reduction at […] nm. In kind it is biochemical, Mus musculus. The conditions noted are these: 100 µM DCPIP as electron acceptor, 50 mM Tris-HCl pH 8.0, 1 mM EDTA, 37 °C; kcat corrected for Mo content.

In series [5] the test system is T5, mAOX3-FeSII-mAOX1.
T5 construct: gene Aox3; mAOX3 with M1-P80 replaced by M1-P76 of mAOX1 (FeSII domain); N-terminal His6-tag; E. coli; dimer
Nature of the series: steady-state kinetics, DCPIP reduction at […] nm. In kind it is biochemical, Mus musculus. The conditions noted are these: 100 µM DCPIP as electron acceptor, 50 mM Tris-HCl pH 8.0, 1 mM EDTA, 37 °C, kcat corrected for Mo content.

Series [6] deals with T6, mAOX3-FeSI-mAOX1.
T6 construct: gene Aox3; mAOX3 with A87-Q214 replaced by T83-Q213 of mAOX1 (FeSI domain); N-terminal His6-tag; E. coli; dimer
Kind of series: steady-state kinetics, DCPIP reduction at […] nm. In kind it is biochemical, Mus musculus. The conditions noted are these: 100 µM DCPIP as electron acceptor, 50 mM Tris-HCl pH 8.0, 1 mM EDTA, 37 °C; kcat corrected for Mo content.

Substrate in series [7]: c1ccc2c(c1)cnc1ccccc12
Kind of series: purified protein. The conditions noted are these: O2 (air-saturated buffer) as electron acceptor, 50 mM Tris-HCl pH 8.0, 1 mM EDTA, 37 °C, kcat corrected for Mo content.

Substrate in series [8]: c1ccc2cnncc2c1
Nature of the series: purified protein. In kind it is biochemical, Mus musculus. The conditions noted are these: 100 µM DCPIP as electron acceptor, 50 mM Tris-HCl pH 8.0, 1 mM EDTA, 37 °C, kcat corrected for Mo content.

Substrate in series [9]: C[n+]1cccc(C(N)=O)c1
Nature of the series: purified protein. To be noted: 100 µM DCPIP as electron acceptor, 50 mM Tris-HCl pH 8.0, 1 mM EDTA, 37 °C, kcat corrected for Mo content. In kind it is biochemical, Mus musculus.

Positions count from the first letter of the chain named. In names and notes the source's numbering stands. Read-outs that look alike come from different tables or passages of the source.

Turning to `c1ccc2c(c1)cnc1ccccc12` [phenanthridine], the values for the Km in the series with mAOX3-FeSII-FeSI-mAOX1 [1], with mAOX3-FeSI-mAOX1 [2] and in the series with mAOX3-FeSII-mAOX1 [3] were 28 ± 2 µM, 35 ± 2 µM and 30 ± 5 µM, respectively.

Regarding `O=Cc1ccccc1` [benzaldehyde], the Km in the series on mAOX3-FeSII-FeSI-mAOX1 [4] stood at 2.2 ± 0.1 µM; with mAOX3-FeSII-mAOX1 [5] (read-out: mAOX3-FeSII-mAOX1), 1.6 ± 0.1 µM; with mAOX3-FeSI-mAOX1 [6] it was 3.6 ± 0.3 µM.

Regarding `c1ccc2cnncc2c1` [phthalazine], the values for the Km in the series on mAOX3-FeSII-FeSI-mAOX1 [4], in the series with mAOX3-FeSII-mAOX1 [5] (read-out: mAOX3-WT ^4) and with mAOX3-FeSI-mAOX1 [6] were 1 ± 0.1 µM, 1.4 ± 0.2 µM and 1.2 ± 0.1 µM, respectively.

As for `O=c1[nH]cnc2[nH]ncc12` [allopurinol], in the series with mAOX3-FeSI-mAOX1 [6], the Km came to 1340 ± 43 µM.

B1: mAOX3 (mouse aldehyde oxidase 3) (Mus musculus; P1015G) (protein)
chain: MSPSKESDELIFFVNGKKVTERNADPEVNLLFYLRKVIRLTGTKYGCGGGDCGACTVMISRYDPISKRISHFSATACLVPICSLHGAAVTTVEGIGSTKTRIHPVQERIAKGHGTQCGFCTPGMVMSIYTLLRNHPEPSTEQIMETLGGNLCRCTGYRPIVESAKSFCPSSTCCQMNGEGKCCLDEEKNEPERKNSVCTKLYEKKEFQPLDPTQELIFPPELMRMAEESQNTVLTFRGERTTWIAPGTLNDLLELKMKHPSAPLVIGNTYLGLHMKFTDVSYPIIISPARILELFVVTNTKQGLTLGAGLSLTQVKNVLSDVVSRLPKEKTQIYCALLKQLKTLAGQQIRNVASLGGHIISRLPTSDLNPILGIGNCILNVASTEGIQQIPLNDHFLAGVPDAILKPEQVLISVFVPRSSKWEFVSAFRQAPRQQNAFATVNAGMKVVFKEDTNTITDLGILYGGIGATVISADKSCRQLIGRCWDEEMLDDAGKMICEEVSLLMAAPGGMEEYRKTLAISFLFMFYLDVLKQLKTRDPHKYPDISQKLLHILEDFPLTMPYGMQSFQDVDFQQPLQDPIGRPIMHQSGIKHATGEAVFCDDMSVLPGELFLAVVTSSKSHAKIISLDASEALASLGVVDVVTARDVPGDNGREEESLYAQDEVICVGQIVCAVAADSYAHAQQAAKKVKIVYQDIEPMIVTVQDALQYESFIGPERKLEQGNVEEAFQCADQILEGEVHLGGQEHFYMETQSVRVVPKGEDKEMDIYVSSQDAAFTQEMVARTLGIPKNRINCHVKRVGGAFGGKASKPGLLASVAAVAAQKTGRPIRFILERRDDMLITGGRHPLLGKYKIGFMNNGKIKAADIQLYINGGCTPDDSELVIEYALLKLENAYKIPNLRVRGRVCKTNLPSNTAFRGFGFPQGAFVTETCMSAVAAKCRLPPEKVRELNMYRTIDRTIHNQEFDPTNLLQCWEACVENSSYYNRKKAVDEFNQQRFWKKRGIAIIPMKFSVGFGKTFYYQAAALVQIYTDGSVLVAHGGVELGQGINTKMIQVASRELKIPMSYIHLDEMSTVTVPNTVTTGASTGADVNGRAVQNACQILMKRLEPIIKQNPSGTWEEWVKEAFVQSISLSATGYFRGYQADMDWEKGEGDIFPYFVFGAACSEVEIDCLTGAHKNIRTDIVMDGSFSINPAVDIGQIEGAFVQGLGLYTLEELKYSPEGVLYTRGPHQYKIASVTDIPEEFHVSLLTPTPNPKAIYSSKGLGEAGTFLGCSVFFAIAAAVAAAREERGLSPIWAINSPATAEVIRMACEDQFTNLVPQTDSKCCKPWSIPVA
With B1, in “purified protein [7]”, the Km turned out to be 47 ± 2 µM, the kcat stood at 8.83 s⁻¹ and the kcat/Km is 189000 M⁻¹ s⁻¹.

B2: mAOX3 (mouse aldehyde oxidase 3) (Mus musculus; F1014V) (protein)
chain: B1 chain with F1014V, G1015P
notes: N-terminal His6-tag, full length, plasmid pMMA1, expressed in E. coli; homodimer with Moco, two [2Fe-2S], FAD
Consider B2, for which, in the series “purified protein [8]”, the Km was 12.5 ± 0.6 µM, the turnover number (kcat) amounted to 4.63 ± 0.233 s⁻¹ and the kcat/Km worked out at 372000 ± 25000 M⁻¹ s⁻¹.

B3: mAOX3 (mouse aldehyde oxidase 3) (Mus musculus; P1015A) (protein)
chain: B1 chain with G1015A
notes: as for B2
In the case of B3, in the series “purified protein [9]”, the Km was found to be 87 ± 3.4 µM, the kcat was 1.08 ± 0.183 s⁻¹ and the catalytic efficiency (kcat/Km) turned out to be 12400 ± 2200 M⁻¹ s⁻¹.

A word on the kcat: it is the maximal rate divided by the concentration of active sites. As usually defined, the kcat/Km is the turnover number divided by the Michaelis constant.
